Assay results published in patent US7851484B2, “Certain chemical entities, compositions, and methods” (Cytokinetics, Inc., priority 2007, dated 2010).

Tested on: SKM MF
Assay: SKM MF AC1.4: ATPase screen of skeletal sarcomeric proteins with PK/LDH coupled enzyme system
Type: biochemical
Set-up: AC1.4 Median: unit not given here
Settings: not given
Experimental: For example, test compounds can be assayed in a highly parallel fashion by using multiwell plates by placing the compounds either individually in wells or testing them in mixtures. Assay components including the target protein complex, coupling enzymes and substrates, and ATP can then be added to the wells and the absorbance or fluorescence of each well of the plate can be measured with a plate reader.
In some embodiments, the method uses a 384 well plate format and a 25 μL reaction volume. A pyruvate kinase/lactate dehydrogenase coupled enzyme system (Huang T G and Hackney D D. (1994) J Biol Chem 269(23):16493-501) can be used to measure the rate of ATP hydrolysis in each well. As will be appreciated by those in the art, the assay components are added in buffers and reagents. The incubation periods can be optimized to give adequate detection signals over the background. The assay can be done in real time giving the kinetics of ATP hydrolysis which increases the signal to noise ratio of the assay.
Just prior to screening, the actin, tropomyosin, and troponin complex are mixed together in the desired ratio (e.g., 7:1:1) to achieve maximal calcium regulation of the actin filament. The screen is conducted at a pCa=6.5. This calcium concentration is in the physiological range during muscle contraction.
To measure the generation of ADP during the reaction, a pyruvate kinase/lactate dehydrogenase/NADH coupled enzyme system (PK/LDH) is added to the actin. The myosin is kept separately. The plates are read in real time so that kinetic curves are obtained. These compounds are in DMSO and were already spotted onto the bottoms of 384 well plates at 10 to 40 μg/ml final concentration.

| SKM MF AC1.4 [µM] | Molecule |
| --- | --- |
| 0.82 | CCC(CC)n1c(O)nc2ncc(Cl)cc21 [6-chloro-1-(pentan-3-yl)-1H-imidazo[4,5-b]pyridin-2-ol] |
| 5.7 | CCC(CC)n1c(O)nc2ncc(C)cc21 [6-methyl-1-(pentan-3-yl)-1H-imidazo[4,5-b]pyridin-2-ol] |
| 19.2 | CCC(CC)n1c(=O)[nH]c2ncccc21 [1-(pentan-3-yl)-1H-imidazo[4,5-b]pyridin-2(3H)-one] |

Same assay, conditions: median

| AC1.4 Median | Molecule |
| --- | --- |
| 1.1778 | CCC(CC)n1c(O)nc2ncc(Cl)c(I)c21 [6-chloro-1-(ethylpropyl)-7-iodoimidazo[4,5-b]pyridin-2-ol] |
| 10.7918 | CCC(C(C)C)n1c(O)nc2ncc(Cl)cc21 (stereo not shown) [6-chloro-1-(1-ethyl-2-methylpropyl)imidazo[4,5-b]pyridin-2-ol] |
| 23.0211 | C=CCn1c(O)nc2ncc(Cl)c(I)c21 [6-chloro-7-iodo-1-prop-2-enylimidazo[4,5-b]pyridin-2-ol] |
| 1.6866 | CCC(CC)n1c(O)nc2ncc(Cl)cc21 [6-chloro-1-(pentan-3-yl)-1H-imidazo[4,5-b]pyridin-2-ol] |
| 18.2493 | methyl 4-[(2R)-2-(6-chloro-2-hydroxyimidazo[4,5-b]pyridinyl)butyl]piperazinecarboxylate |
| 45.5421 | COCCCCn1c(O)nc2ncc(Cl)cc21 [6-chloro-1-[(methoxymethyl)propyl]imidazo[4,5-b]pyridin-2-ol] |
| 28.0697 | CC(n1c(O)nc2ncc(Cl)cc21)C(C)(C)C (stereo not shown) [6-chloro-1-(1,2,2-trimethylpropyl)imidazo[4,5-b]pyridin-2-ol] |
| 1.0215 | CCC(CC)n1c(O)nc2ncc(Cl)c(C#N)c21 [6-chloro-1-(ethylpropyl)-2-hydroxyimidazo[4,5-b]pyridine-7-carbonitrile] |
| 13.3270 | 7-[(dimethylamino)methyl]-6-chloro-1-(ethylpropyl)benzimidazol-2-ol |
| 0.1667 | C#Cc1cnc2nc(O)n(C(CC)CC)c2c1 [6-ethynyl-1-(pentan-3-yl)-1H-imidazo[4,5-b]pyridin-2-ol] |
| 9.8768 | CCC(CC)n1c(O)nc2nc(Br)c(Br)cc21 [5,6-dibromo-1-(ethylpropyl)imidazo[4,5-b]pyridin-2-ol] |
| 22.4532 | CC(Cn1c(O)nc2ncc(Cl)cc21)c1ccccc1 (stereo not shown) [6-chloro-1-(2-phenylpropyl)imidazo[4,5-b]pyridin-2-ol] |
| 11.0001 | CCC(CC)(Cn1c(O)nc2ncc(Cl)cc21)c1ccccc1 [6-chloro-1-(2-ethyl-2-phenylbutyl)imidazo[4,5-b]pyridin-2-ol] |
| 25.8589 | 6-chloro-1-(methylethyl)imidazo[4,5-b]pyridin-2-ol |
| 7.8719 | 1-(ethylpropyl)imidazo[4,5-b]pyridine-2,6-diol |
| 30.7467 | 6-chloro-1-(ethylpropyl)-7-(hydroxyethyl)imidazo[4,5-b]pyridin-2-ol |
| 10.2517 | CCC(CC)n1c(O)nc2ncc(C)cc21 [6-methyl-1-(pentan-3-yl)-1H-imidazo[4,5-b]pyridin-2-ol] |
| 2.6422 | CCC(CC(C)C)n1c(O)nc2ncc(Cl)cc21 (stereo not shown) [6-chloro-1-(1-ethyl-3-methylbutyl)imidazo[4,5-b]pyridin-2-ol] |
| 22.3369 | 1-(ethylpropyl)-6-(3-thienyl)imidazo[4,5-b]pyridin-2-ol |
| 0.1028 | 1-(ethylpropyl)-6-ethynyl-2-hydroxyimidazo[4,5-b]pyridine-7-carbonitrile |
| 1.7026 | COC(=O)c1c(Cl)cnc2nc(O)[nH]c12 [methyl 6-chloro-2-hydroxyimidazo[4,5-b]pyridine-7-carboxylate] |
| 25.2370 | CCC(CC)Cn1c(O)nc2ncc(Cl)cc21 [6-chloro-1-(2-ethylbutyl)-1H-imidazo[4,5-b]pyridin-2-ol] |
| 3.5145 | 6-((1Z)prop-1-enyl)-1-(ethylpropyl)imidazo[4,5-b]pyridin-2-ol |
| 13.7960 | CCC(CC)n1c(O)nc2ncc(SC)cc21 [6-(methylthio)-1-(pentan-3-yl)-1H-imidazo[4,5-b]pyridin-2-ol] |
| 8.3875 | COC(=O)N1CCN(C[C@@H](CC(C)C)n2c(O)nc3cc(Cl)cnc32)CC1 [methyl 4-[(2R)-2-(6-chloro-2-hydroxyimidazo[4,5-b]pyridinyl)-4-methylpentyl]piperazinecarboxylate] |
| 28.2335 | tert-butyl 4-[6-chloro-1-(ethylpropyl)-2-hydroxyimidazo[4,5-b]pyridin-7-yl]-4-hydroxypiperidinecarboxylate |
| 1.8005 | C=C(C)c1c(Cl)cnc2nc(O)n(C(CC)CC)c12 [6-chloro-1-(ethylpropyl)-7-(1-methylvinyl)imidazo[4,5-b]pyridin-2-ol] |

More lines, now with the values behind:

| Molecule | AC1.4 Median |
| --- | --- |
| CC(C)C[C@H](CO)n1c(O)nc2ncc(Cl)cc21 [1-[(1R)-2-hydroxy-1-(2-methylpropyl)ethyl]-6-chloroimidazo[4,5-b]pyridin-2-ol] | 5.6431 |
| CCC(CC)n1c(O)nc2ncc(Cl)c(/C=N\OCc3ccccc3)c21 [7-[(1Z)-2-(phenylmethoxy)-2-azavinyl]-6-chloro-1-(ethylpropyl)imidazo[4,5-b]pyridin-2-ol] | 42.0392 |
| CC[C@@H](c1ccccc1)n1c(O)nc2ncc(Cl)cc21 [1-((1S)-1-phenylpropyl)-6-chloroimidazo[4,5-b]pyridin-2-ol] | 6.3763 |
| CC[C@@H](C)n1c(O)nc2ncc(Cl)cc21 [1-((1R)-1-methylpropyl)-6-chloroimidazo[4,5-b]pyridin-2-ol] | 10.6839 |
| C=Cc1cnc2nc(O)n(C(CC)CC)c2c1 [1-(pentan-3-yl)-6-vinyl-1H-imidazo[4,5-b]pyridin-2-ol] | 3.0420 |
| CC(C)CC(C)n1c(O)nc2ncc(Cl)cc21 (stereo not shown) [1-(1,3-dimethylbutyl)-6-chloroimidazo[4,5-b]pyridin-2-ol] | 5.7765 |
| CC(C)(C)n1c(O)nc2ncc(Cl)cc21 [1-(tert-butyl)-6-chloroimidazo[4,5-b]pyridin-2-ol] | 9.8213 |
| 6-chloro-1-(ethylpropyl)-7-(hydroxymethyl)imidazo[4,5-b]pyridin-2-ol | 42.6538 |
| CC(C)C[C@H](CN1CCOCC1)n1c(O)nc2ncc(Cl)cc21 [1-[(1R)-3-methyl-1-(morpholin-4-ylmethyl)butyl]-6-chloroimidazo[4,5-b]pyridin-2-ol] | 5.0392 |
| CCC(CC)n1c(O)nc2ncc(Cl)c(/C=N/OC(C)(C)C)c21 [7-[(1E)-2-(tert-butoxy)-2-azavinyl]-6-chloro-1-(ethylpropyl)imidazo[4,5-b]pyridin-2-ol] | 1.8945 |
| 6-bromo-1-(ethylpropyl)-7-methylimidazo[4,5-b]pyridin-2-ol | 2.2135 |
| 1-(ethylpropyl)-6-(1-methylvinyl)imidazo[4,5-b]pyridin-2-ol | 10.1217 |
| C[C@@H](c1ccccc1)n1c(O)nc2ncc(Cl)cc21 [1-((1S)-1-phenylethyl)-6-chloroimidazo[4,5-b]pyridin-2-ol] | 31.7670 |
| CCC(CC)n1c(O)nc2ncc(Cl)c(/C=N\OCC(C)C)c21 [7-[(1Z)-2-(2-methylpropoxy)-2-azavinyl]-6-chloro-1-(ethylpropyl)imidazo[4,5-b]pyridin-2-ol] | 22.4644 |
| CCC(CC)n1c(O)nc2ncc(Cl)c(/C=N\OC(C)(C)C)c21 [7-[(1Z)-2-(tert-butoxy)-2-azavinyl]-6-chloro-1-(ethylpropyl)imidazo[4,5-b]pyridin-2-ol] | 19.5317 |
| CC[C@H](CN1CCOCC1)n1c(O)nc2ncc(Cl)cc21 [1-[(1R)-1-(morpholin-4-ylmethyl)propyl]-6-chloroimidazo[4,5-b]pyridin-2-ol] | 15.2631 |
| CCC(CC)n1c(O)nc2ncc(Cl)c(C3=CCN(C(=O)OC(C)(C)C)CC3)c21 [tert-butyl 4-[6-chloro-1-(ethylpropyl)-2-hydroxyimidazo[4,5-b]pyridin-7-yl]-1,2,5,6-tetrahydropyridinecarboxylate] | 26.7443 |
| CCC(CC)n1c(=O)[nH]c2ncccc21 [1-(pentan-3-yl)-1H-imidazo[4,5-b]pyridin-2(3H)-one] | 19.1998 |
| C[C@H](c1ccccc1)n1c(O)nc2ncc(Cl)cc21 [1-((1R)-1-phenylethyl)-6-chloroimidazo[4,5-b]pyridin-2-ol] | 35.2255 |
| CC[C@H](CCO)n1c(O)nc2ncc(Cl)cc21 [1-((1R)-1-ethyl-3-hydroxypropyl)-6-chloroimidazo[4,5-b]pyridin-2-ol] | 7.7806 |
| CC[C@@H](CCO)n1c(O)nc2ncc(Cl)c(I)c21 [1-((1S)-1-ethyl-3-hydroxypropyl)-6-chloro-7-iodoimidazo[4,5-b]pyridin-2-ol] | 37.2312 |
| Oc1nc2ncc(Cl)cc2n1[C@H](Cc1ccccc1)CN1CCOCC1 [1-[(1R)-2-morpholin-4-yl-1-benzylethyl]-6-chloroimidazo[4,5-b]pyridin-2-ol] | 8.8149 |
| C=CCc1c(Cl)cnc2nc(O)n(C(CC)CC)c12 [6-chloro-1-(ethylpropyl)-7-prop-2-enylimidazo[4,5-b]pyridin-2-ol] | 3.6218 |
| Oc1nc2ncc(Cl)cc2n1[C@H](Cc1ccccn1)CN1CCOCC1 [1-[(1R)-2-morpholin-4-yl-1-(2-pyridylmethyl)ethyl]-6-chloroimidazo[4,5-b]pyridin-2-ol] | 10.9895 |

Same assay, conditions: median value (footnote †)

| SKM MF AC1.4 (μM) | Molecule |
| --- | --- |
| 3.042^† μM | C=Cc1cnc2nc(O)n(C(CC)CC)c2c1 [1-(pentan-3-yl)-6-vinyl-1H-imidazo[4,5-b]pyridin-2-ol] |
| 0.1563^† μM | C#Cc1cnc2nc(O)n(C(CC)CC)c2c1 [6-ethynyl-1-(pentan-3-yl)-1H-imidazo[4,5-b]pyridin-2-ol] |
| 25.237^† μM | CCC(CC)Cn1c(O)nc2ncc(Cl)cc21 [6-chloro-1-(2-ethylbutyl)-1H-imidazo[4,5-b]pyridin-2-ol] |
| 13.796^† μM | CCC(CC)n1c(O)nc2ncc(SC)cc21 [6-(methylthio)-1-(pentan-3-yl)-1H-imidazo[4,5-b]pyridin-2-ol] |
